Test results published in patent US6664442B2, “Selecting compounds to reduce inflammation associated with Alzheimer's disease” (Elan Pharmaceuticals, Inc., priority 2000, dated 2003).

How the values were obtained:
Format in all cases: in vivo, mouse
MCP-1 = experiment: mRNA expression of MCP-1 in PDAPP mice immunized with Aβ1-42 or a fragment, quantitative RT-PCR; conditions: tissue not given
From the text: (§1) RNA was isolated from brain tissues using the S.N.A.P.™ Total RNA Isolation Kit (Invitrogen, Carlsbad, Calif.) according to manufacturer's instructions, with the following modifications: the tissue was homogenized for 20 seconds using a rotor-stator homogenizer (Fisher Scientific). The DNA digestion step was repeated a second time following isopropanol precipitation.
(§2) Quantitative PCR assays were run on a Perkin Elmer 7700 Sequencer using methods and materials provided by Perkin Elmer (Applied Biosystems Division, Foster City, Calif.). Primers and fluorescent probes were obtained from Perkin Elmer; the sequences and concentrations of primers and probes used for the various assays are listed in Table 1 below. PCR reactions were set up using approximately 300 nM concentrations of each of the forward and reverse primers, 100 nM probe and RNA extracted from the tissue of interest (20 ng). Each reaction also included a standard RNA for comparison. Data were normalized to total RNA or to GAPDH. Standard curves were run using standard RNA prepared from the appropriate tissue (e.g., brain total RNA). Sample results were normalized to the amount of RNA measured by OD and or control message (e.g., GAPDH).
(§3) Thus, the efficacy of Aβ-treatment can be assessed by comparing the mRNA expression of such markers.

CD4 = experiment: mRNA expression of CD4 in PDAPP mice immunized with Aβ1-42 or a fragment, quantitative RT-PCR; conditions: tissue not given
From the text: as §1, §2, §3

Igk = experiment: mRNA expression of Igk in PDAPP mice immunized with Aβ1-42 or a fragment, quantitative RT-PCR; conditions: tissue not given
From the text: as §1, §2, §3

IFN-γ = experiment: mRNA expression of IFN-γ in PDAPP mice immunized with Aβ1-42 or a fragment, quantitative RT-PCR; conditions: tissue not given
From the text: as §1, §2, §3

IgG-1 = experiment: mRNA expression of IgG-1 in PDAPP mice immunized with Aβ1-42 or a fragment, quantitative RT-PCR; conditions: Fr cortex
From the text: as §1, §2, §3

With “Aβ1-5: fragment of Aβ1-42 used to immunize PDAPP mice (DAEFR; Amyloid-beta protein 42; UniProt P05067 672-676, looked up, fragment)” the “MCP-1 mRNA, ratio of Aβ-treated mice to non-Aβ-treated mice” value (MCP-1) was 0.75X, the “CD4 mRNA, ratio of Aβ-treated mice to non-Aβ-treated mice” value (CD4) was 0.99X and the “Igk mRNA, ratio of Aβ-treated mice to non-Aβ-treated mice” value (Igk) was 2.10X. For the same substance, the “IFN-γ mRNA, ratio of Aβ-treated mice to non-Aβ-treated mice” value (IFN-γ) was “.8X”.
In the case of “Aβ1-42: amyloid β-peptide 1-42 used to immunize PDAPP mice”, the “IgG-1 mRNA, ratio of Aβ-treated mice to non-Aβ-treated mice” value (IgG-1) is reported as 300X.
